Measurements published in the METLIN SMRT retention time set (Domingo-Almenara et al. 2019).

Assay: gradient 5% acetonitrile 3 min, to 50% in 2 min, to 85% in 15 min, held 3 min, 100 µL/min
Details: column: Zorbax Extend-C18 2.1 x 50 mm; eluents: water / acetonitrile, 0.1% formic acid
Method in brief: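 Standards, all pure, were combined into mixtures of ~100 molecules and run at 100 μL/min on a Zorbax Extend-C18 column (2.1 × 50 mm, 1.8 μm) with water and acetonitrile, each containing 0.1% formic acid. A coupled quadrupole time-of-flight mass spectrometer operated in positive and negative ionization mode. Retention time values come from computationally picked adduct peaks, each inspected manually.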

RP-LC retention time [s] | SMILES
1010 | COC(=O)C1=C(C)N(C2CCCC2)C(=O)C1(NC(=O)c1cccc(OC)c1)C(F)(F)F (stereo not drawn)
954 | COc1cc(NC(=O)Cn2c(=O)n(C3CCCCC3)c3ncccc32)cc(OC)c1
872 | Cc1sc(NC(=O)c2ccc(F)cc2)nc1-c1ccc2c(c1)NC(=O)CO2
742 | Cc1cnc(C(=O)N[C@@H]2CCC[C@@H]2C(=O)NCC2CCCCC2)cn1
799 | CCc1ccc(OCC(=O)Nc2nnc(C3CC(=O)N(c4ccccc4)C3)o2)cc1 (stereo not drawn)
1230 | O=c1cc(-c2ccncc2)nc(N2CCCC2)n1Cc1cccc(F)c1
858 | Cn1ncc2c(N3CCCC3)nc(C(=O)NCc3ccc(Cl)cc3)nc21
919 | COc1ccc(-c2noc(-c3nn(-c4ccc(C)cc4)ccc3=O)n2)cc1
854 | COc1ccc(-c2nc3ncc4c(=O)n(CCc5ccc(OC)c(OC)c5)ccc4n3n2)cc1
563 | O=C(NCCN1CCc2ccccc2C1)C1CCN(c2nnc3ccccn23)CC1
661 | CCOc1ncccc1CNS(=O)(=O)c1cccnc1
654 | COc1ccc(OC)c(NC(=O)Cn2c(N3CCCC3)nc(C)cc2=O)c1
969 | COc1ccc(N2CC(c3noc(-c4cc(F)cc(F)c4)n3)CC2=O)cc1 (stereo not drawn)
903 | O=S(=O)(NCCOc1ccc2c(c1)OCO2)c1ccc(F)c(Cl)c1
938 | CCC(C)NS(=O)(=O)c1cc(-c2nnc(-c3ccc(OC)c(OC)c3)o2)ccc1C (stereo not drawn)
826 | O=C(Cn1cccc1-c1nc(-c2ccc(Cl)cc2)cs1)NCCCN1CCCC1
906 | CCn1c(C(=O)NCc2ccc(N(C)C)cc2)cc2c(-c3cccs3)nn(-c3ccccc3)c21
702 | O=S(=O)(c1cccc(C(F)(F)F)c1)N1CCC2(CCN(c3cccnc3)C2)C1 (stereo not drawn)
1110 | Cc1csc(-c2cc(S(=O)(=O)NCCc3ccc(Cl)cc3)c(C)s2)n1
713 | COc1ccccc1CNC(=O)[C@@H]1[C@H](c2cc(OC)c(OC)c(OC)c2)c2cc3c(cc2[C@H](O)[C@H]1CO)OCO3
735 | Cc1cccc(-c2cc3n(n2)CCCN(C(=O)C2CCOC2)C3)c1 (stereo not drawn)
718 | COc1cccc(NC(=O)N(Cc2nnc3n2CCCCC3)c2cccc(OC)c2)c1

RP-LC retention time [s] | SMILES
837 | Cc1noc(/C=C\c2ccc(S(=O)(=O)N3CCCC3)cc2)c1NC(=O)C1CC1
887 | CC1CCCN(C(=O)c2cn(-c3cc(-c4nc(C5CC5)no4)ccn3)cn2)C1 (stereo not drawn)
684 | CN(CC1CCOCC1)C(=O)NCc1cccc(F)c1
708 | CCOc1cc(=O)n2c(c1C(=O)Nc1ccc(C#N)cc1)CCCC2
740 | O=S(=O)(c1cccnc1)N1CCc2[nH]nc(-c3ccc(F)cc3)c2C1
739 | COc1cccc(CNC(=O)CN2C(=O)NC(c3ccccc3Cl)C3=C2COC3=O)c1OC (stereo not drawn)
780 | CCc1cc(C2CCCN2C(=O)Nc2ccccc2C)on1 (stereo not drawn)
733 | O=C(c1cc(S(=O)(=O)N2CCCC(C(=O)N3CCCC3)C2)c[nH]1)N1CCCCCC1 (stereo not drawn)
607 | O=C(NC1CC(=O)N(C2CC2)C1)c1cc(-c2ccccc2)n[nH]1 (stereo not drawn)
793 | CCCCC(=O)N1CCCN(C2=NS(=O)(=O)C(c3ccccc3)=C2C)CC1
967 | CS(=O)(=O)Nc1ccc([N+](=O)[O-])cc1Oc1ccccc1
716 | O=C(Cc1ccc(F)cc1)Nc1nnc(C2CC(=O)N(c3ccccc3)C2)o1 (stereo not drawn)
654 | CCn1c(C(=O)NCCCN2CCCCC2C)c(N2CCCC2=O)c2cc(F)ccc21 (stereo not drawn)
705 | O=C(NCC1CCOCC1)Nc1ccc(Cl)cc1
668 | Cc1nnc2c(=O)n(CC(=O)NC3CCCCC3)c3cccnc3n12
704 | O=C(NCCCO)C1CCCN(c2ccc(Sc3ccc(Br)cc3)nn2)C1 (stereo not drawn)
987 | O=C(CN1C(=O)CCCc2cc(S(=O)(=O)N3CCCCCC3)ccc21)NC1CCCCC1
707 | Cc1nc(NC2=NCN(Cc3ccc4c(c3)OCO4)CN2)nc2ccccc12
1000 | CCOC(=O)c1nc(NCc2ccc(OC(C)C)cc2)c2c(C)noc2n1
1250 | CCOc1cccc(-c2noc(Cn3ncn4nc(-c5ccccc5Cl)cc4c3=O)n2)c1
641 | O=C(Nc1ccc(S(=O)(=O)Nc2nccs2)cc1)c1ccc([N+](=O)[O-])o1
603 | CCOC(=O)c1noc2ncnc(NCC3CCN(Cc4cccc(Cl)c4)CC3)c12

RP-LC retention time [s] | SMILES
673 | CCc1nc(-c2cc(S(=O)(=O)N3CCC(C(=O)N4CCN(CC)CC4)CC3)c(C)s2)no1
917 | CCOC(=O)c1cnc2nc(-c3ccccc3)nn2c1C
647 | Cn1c(C2CCN(C(=O)Nc3ccc(F)cc3F)CC2)cc(=O)n2nccc12
732 | CN1C(=O)c2cc(C(=O)Nc3ccc(F)cc3F)nn2CC1(C)C(=O)NC1CCCCC1 (stereo not drawn)
696 | Cc1noc(C)c1CNC(=O)Cc1ccccc1F
1080 | Cc1cccc(-c2nc(-c3ccc(S(=O)(=O)N4CCOCC4)cc3)no2)c1
988 | Cc1ccc(-c2ncc(C(=O)Nc3cc(F)ccc3F)c(-c3ccncc3)n2)cc1
591 | Cc1ccn2cc(C(=O)NCc3cccs3)nc2c1
606 | C=CCNC(=O)c1c2c(nc3ccc(C)cc13)CCC2
829 | O=C1NC2(CCN(C(=O)Nc3ccc(Cl)cc3)CC2)N=C1c1ccccc1
1070 | CC1CCN(S(=O)(=O)c2ccc3c(ccn3CC(=O)NCC(C)c3ccccc3)c2)CC1 (stereo not drawn)
1030 | Cc1cc(NS(=O)(=O)c2ccc(-c3c(C)noc3C)cc2)ccc1Br
760 | CN1C(=O)c2cc(C(=O)NCc3ccc(F)cc3)nn2CC1(C)C(=O)NCc1ccc(F)cc1 (stereo not drawn)
709 | Cc1nn(CCCC(=O)Nc2cccc(F)c2)c(=O)c2nn(-c3ccccc3)c(C)c12
852 | CSCCC(NS(=O)(=O)c1ccc(Oc2ccccc2C)cc1)C(=O)O (stereo not drawn)
796 | O=C1CCCc2cc(S(=O)(=O)N3CCC(C(=O)NCCC4=CCCCC4)CC3)ccc2N1
729 | CC(=O)c1cccc(NC(=O)Cc2csc3nc(-c4ccccc4)cn23)c1
711 | Cc1ccc(CNS(=O)(=O)c2cc3n(c2)CCCN(C)C3=O)cc1
1080 | CCOC(=O)c1noc2ncnc(N(Cc3ccccc3)C(C)C)c12
755 | Cc1cccc(-c2ncccc2CNS(=O)(=O)c2ccc(F)c(F)c2)c1
870 | COc1ccc(Cl)cc1NC(=O)NC1CCCCC1N1C(=O)CSC1=O (stereo not drawn)
774 | COc1ccccc1C(=O)NC1(C(F)(F)F)C(=O)N(CC2CCCO2)C(C)=C1C(C)=O (stereo not drawn)

RP-LC retention time [s] | SMILES
806 | O=C(CCNc1c(-c2cccc(F)c2)nc2cnccn12)NCc1ccc(F)c(Cl)c1
1390 | FC(F)(F)c1cnc(N2CCN(c3ccccc3)CC2)c(Cl)c1
690 | CCNC(=O)NC1CCN(c2ccc(C)c(C)c2)C1=O (stereo not drawn)
786 | COc1ccc(Cl)cc1NC(=O)C1CCCN(c2cc(=O)n(C)c(=O)n2C)C1 (stereo not drawn)
778 | O=C(CN1CCN(Cc2ccccc2F)C1=O)N1CCN(c2ccccc2)CC1
853 | CC1Cc2ccc(CNC(=O)NC(C)(C)C)cc2N1C(=O)c1ccccc1 (stereo not drawn)
823 | Cc1ccc(C2Cn3cnc(C(=O)N4CCC(C(=O)NCc5ccccc5Cl)CC4)c3CO2)cc1 (stereo not drawn)
595 | CC(C)N1CCN(c2ncc(C(=O)NCc3ccccc3)c(N)n2)CC1
660 | CC1(C(=O)NCc2ccccc2)Cn2cnc(C(=O)NC3CC3)c2C(=O)N1C1CC1 (stereo not drawn)
615 | O=C(Cc1ccc(S(=O)(=O)N2CCN(c3ccccn3)CC2)s1)N1CCCC1
754 | COc1ccc(CCNC(=O)c2nc(CCS(=O)(=O)c3ccccc3)no2)cc1OC
837 | O=C(CSc1ncccn1)Nc1nc(-c2ccccc2)cs1
1100 | O=C(c1ccc(Br)o1)N1CCc2nc(-c3ccc(Cl)cc3)ncc2C1
739 | CCOc1ccc(NC(=O)N2CCC3(CC2)NC(=O)c2ccccc2O3)cc1
691 | CCCNc1cc(N2CCCC(CCC(=O)Nc3ccc4c(c3)OCO4)C2)ncn1 (stereo not drawn)
930 | COc1ccc(Cl)cc1N1CC(c2nc(-c3cccs3)no2)CC1=O (stereo not drawn)
667 | CN(C1CCc2nn(C)c(=O)n2CC1)S(=O)(=O)c1cccc(C#N)c1 (stereo not drawn)
740 | Cc1ccc(C)c(NC(=O)N2CCC(N3CCN(Cc4ccccc4)C(=O)C3=O)CC2)c1
1170 | Cc1ccc(-c2csc(-c3cccn3CC(=O)N(C)Cc3ccco3)n2)cc1
1150 | CCc1csc(-c2ccc(S(=O)(=O)NC(CC)c3cccs3)s2)n1 (stereo not drawn)
718 | O=C(c1ccsc1)N1CCN(c2nnc3ccc(C(F)(F)F)cn23)CC1
743 | COc1ccc2nc(NC3=NCN(CCc4cccs4)CN3)nc(C)c2c1
